We go through two compounds from the NIST ThermoML archive (doi:10.1016/j.jct.2016.12.018).

SMILES strings stand for the structures. ± gives the expanded uncertainty stated by the source.

For data set [1] the following is noted: 293.15 K; 100 kPa; Liquid; Vibrating tube method.
A short description of data set [2]: refractive index (Na D-line) (dimensionless). Particulars: 293.15 K; 100 kPa; Liquid; Standard Abbe refractometry.

For the compound `CC12CCC(CC1)C(C)(C)O2` [1,3,3-trimethyl-2-oxabicyclo[2.2.2]octane], the mass density in data set [1] is given as 924.84 ± 2 kg/m3. The refractive index in data set [2] is given as 1.45756 ± 0.0011.

Turning to `O` [water], the refractive index in data set [2] came out at 1.33299 ± 0.001.

The term mass density denotes mass per unit of volume. The term refractive index denotes a measure of how strongly the sample bends light.
